Results from ChEMBL document CHEMBL5244222, “A comprehensive review on xanthone derivatives as α-glucosidase inhibitors” (Eur J Med Chem, 2018).
≈ marks a conversion by molar mass, not a printed value.

Target: T1, Alpha glucosidase (Homo sapiens, UniProt O43451+P10253+P14410+Q2M2H8)
Experiment: Inhibition of alpha-glucosidase (unknown origin) using PNPG as substrate incubated for 30 mins by absorbance assay
Type: protein assay

Row | SMILES | IC50 [µM]
1 | COc1cc(O)c2c(=O)c3c(OC)c(O)c(O)cc3oc2c1 | 44.5
2 | C=Cc1cc2oc3cc(O)cc(O)c3c(=O)c2c(OC)c1O | 26.3
3 | O=c1c2c(O)cc(O)cc2oc2cc(O)cc(O)c12 | 39
4 | O=c1c2ccccc2oc2cc(O)cc(O)c12 | 35.2
5 | O=c1c2c(O)cc(O)cc2oc2ccc(O)c(O)c12 | 23.2

Target: T1, Alpha glucosidase
Experiment: Inhibition of alpha-glucosidase (unknown origin) at 40 uM
Type: protein assay

Row | SMILES | inhibition [%]
6 | COc1cc(O[C@H]2O[C@@H](CO)[C@H](O)[C@H](O)[C@@H]2O)c2c(=O)c3ccc(OC)c(OC)c3oc2c1 | 98.8

Target: T2, Alpha-glucosidase (Saccharomyces cerevisiae S288c, UniProt P53341+P38158+P07265)
Experiment: Inhibition of Saccharomyces cerevisiae alpha-glucosidase using PNPG as substrate incubated for 30 mins by spectrophotometric assay
Type: protein assay

Row | SMILES | IC50 [µM]
7 | C=C(C)/C=C/c1c(O)cc2oc3cc(O)c(OC)c(/C=C/C(=C)C)c3c(=O)c2c1O | 5
8 | C=C(C)/C=C/c1c(O)c(CC=C(C)C)c2oc3c(O)cccc3c(=O)c2c1O | 21.5
9 | C=C(C)/C=C/c1c(OC)c(O)cc2oc3cc4c(c(O)c3c(=O)c12)CC(O)C(C)(C)O4 (centres undefined) | 30.5
10 | C=C(C)C1Cc2c(cc3oc4cc(O)c(OC)c(CC=C(C)C)c4c(=O)c3c2O)O1 (centres undefined) [MANGOSTENONE F] | 21
11 | C=C(C)/C=C/c1c(O)c(CC=C(C)C)c2oc3c(O)ccc(O)c3c(=O)c2c1O | 10.8
12 | C=C(C)/C=C/c1c(O)cc2oc3cc(O)c(O)c(/C=C/C(=C)C)c3c(=O)c2c1O | 1.5
13 | C=C(C)/C=C/c1c(O)cc2oc3cc(O)c(OC)c(CC(=O)C(=C)C)c3c(=O)c2c1O | 9.8
14 | CC(C)=CC/C(C)=C/Cc1c(O)cc2oc3c(O)ccc(O)c3c(=O)c2c1O | 6.9
15 | C=C(C)/C=C/c1c(OC)cc2oc3cc(O)c(OC)c(/C=C/C(=C)C)c3c(=O)c2c1O | 14.4

Target: T2, Alpha-glucosidase
Experiment: Inhibition of Saccharomyces cerevisiae alpha-glucosidase using PNPG as substrate preincubated for 15 mins followed by substrate addition and measured after 30 mins by spectrophotometric assay
Type: protein assay

Row | SMILES | IC50 [µM]
16 | CC(C)=CC/C(C)=C/Cc1c(O)c(CC=C(C)C)c2oc3c(O)ccc(O)c3c(=O)c2c1O | 227
17 | COc1c(CC=C(C)C)c(O)c2c(=O)c3c(O)ccc(O)c3oc2c1CC=C(C)C | 76
18 | C=C(C)/C=C/c1c(O)c(CC=C(C)C)c2oc3c(O)ccc(O)c3c(=O)c2c1O | 84
19 | O=c1c2cc(O)ccc2oc2cccc(O)c12 | 145
20 | CC(C)=CC/C(C)=C/Cc1c(O)cc2oc3c(O)ccc(O)c3c(=O)c2c1O | 394

Target: T2, Alpha-glucosidase
Experiment: Inhibition of yeast alpha-glucosidase assessed as release of p-nitrophenol using PNPG as substrate preincubated for 10 mins followed by substrate addition and measured after 35 mins by microplate photometer analysis
Type: protein assay

Row | SMILES | IC50 [µM]
21 | C=C(C)/C=C/c1c(O)cc2oc3cc(O)c(O)c(C/C=C(\C)CC=C(C)C)c3c(=O)c2c1O | 1.7
22 | C=C(C)/C=C/c1cc(O)c(O)c2oc3c(C/C=C(/C)CC=C(C)C)c(OC)cc(O)c3c(=O)c12 | 7.8
23 | COc1c(O)cc2oc3cc(O)c(C/C=C(\C)CO)c(O)c3c(=O)c2c1C/C=C(/C)CC=C(C)C | 28
24 | COc1cc(O)c2c(=O)c3c(C/C=C(\C)CCC=C(C)C)c(OC)c(O)cc3oc2c1 | 12.4
25 | C=C(C)/C=C/c1c(OC)cc(O)c2c(=O)c3ccc(O)c(O)c3oc12 | 9.4
26 | C=C(C)/C=C/c1c(O)cc2oc3c(/C=C/C(=C)C)c(O)c(OC)cc3c(=O)c2c1O | 53.5
27 | COc1c(O)cc2oc3cc(O)c(C/C=C(\C)COC(C)=O)c(O)c3c(=O)c2c1C/C=C(/C)CC=C(C)C | 70.3
28 | C=C(C)/C=C/c1c(O)cc2oc3cc(O)c(OC)c(C/C=C(\C)CC=C(C)C)c3c(=O)c2c1O | 10.7
29 | C=C(C)/C=C/c1c(O)cc(O)c2c(=O)c3c(C/C=C(/C)CC=C(C)C)c(OC)c(O)cc3oc12 | 14.1

Target: T2, Alpha-glucosidase
Experiment: Inhibition of yeast alpha-glucosidase using p-nitrophenyl-alpha-D-glucopyranoside as substrate incubated for 30 mins by spectrophotometric assay
Type: protein assay

Row | SMILES | IC50 [µM]
30 | C=C(C)/C=C/c1c(O)cc2oc3cc(O)c(OC)c(/C=C/C(=C)C)c3c(=O)c2c1O | 11.4
31 | COc1c(O)cc2oc3cc(O)c(C/C=C(\C)CO)c(O)c3c(=O)c2c1C/C=C(/C)CC=C(C)C | 168.7
32 | COc1c(O)cc2oc3cc(O)c(C/C=C(\C)COC(C)=O)c(O)c3c(=O)c2c1C/C=C(/C)CC=C(C)C | 18.2
33 | C=C(C)/C=C/c1c(O)cc2oc3cc(O)c(OC)c(C/C=C(\C)CC=C(C)C)c3c(=O)c2c1O | 20.7

Target: T2, Alpha-glucosidase
Experiment: Inhibition of Saccharomyces cerevisiae alpha-glucosidase assessed as release of p-nitrophenol using pNPG as substrate preincubated for 5 mins followed by substrate addition and measured after 30 mins by absorbance assay
Type: protein assay

Row | SMILES | IC50 [µM]
34 | CC(C)=CCc1cc2c(=O)c3c(O)c4c(cc3oc2c(O)c1O)OC(C)(C)C=C4 | 29.36
35 | C=CC(C)(C)c1c(O)ccc2c(=O)c3c(O)c(CC=C(C)C)c(OC)c(O)c3oc12 | 8.9
36 | CC1(C)C=Cc2c(cc3oc4c(O)c5c(cc4c(=O)c3c2O)C=CC(C)(C)O5)O1 | > 100
37 | CC(C)=CCc1c(O)cc2oc3ccc(O)cc3c(=O)c2c1O | > 100
38 | CC1(C)C=Cc2c(cc3oc4ccc(O)cc4c(=O)c3c2O)O1 | > 100

Target: T2, Alpha-glucosidase
Experiment: Mixed-type inhibition of Saccharomyces cerevisiae alpha-glucosidase using PNPG as substrate incubated for 30 mins by Lineweaver-Burk double-reciprocal plot analysis
Type: protein assay

Row | SMILES | Ki [µM]
39 | C=C(C)/C=C/c1c(O)cc2oc3cc(O)c(OC)c(/C=C/C(=C)C)c3c(=O)c2c1O | 7.3
40 | C=C(C)/C=C/c1c(O)c(CC=C(C)C)c2oc3c(O)cccc3c(=O)c2c1O | 12.3
41 | C=C(C)/C=C/c1c(OC)c(O)cc2oc3cc4c(c(O)c3c(=O)c12)CC(O)C(C)(C)O4 (centres undefined) | 23
42 | C=C(C)C1Cc2c(cc3oc4cc(O)c(OC)c(CC=C(C)C)c4c(=O)c3c2O)O1 (centres undefined) [MANGOSTENONE F] | 18.1
43 | C=C(C)/C=C/c1c(O)c(CC=C(C)C)c2oc3c(O)ccc(O)c3c(=O)c2c1O | 8.5
44 | C=C(C)/C=C/c1c(O)cc2oc3cc(O)c(O)c(/C=C/C(=C)C)c3c(=O)c2c1O | 1.4
45 | C=C(C)/C=C/c1c(O)cc2oc3cc(O)c(OC)c(CC(=O)C(=C)C)c3c(=O)c2c1O | 8.1
46 | CC(C)=CC/C(C)=C/Cc1c(O)cc2oc3c(O)ccc(O)c3c(=O)c2c1O | 2.8
47 | C=C(C)/C=C/c1c(OC)cc2oc3cc(O)c(OC)c(/C=C/C(=C)C)c3c(=O)c2c1O | 14.8

Target: T2, Alpha-glucosidase
Experiment: Inhibition of Saccharomyces cerevisiae alpha-glucosidase using maltose as substrate incubated for 30 mins by spectrophotometric assay
Type: protein assay

Row | SMILES | IC50 [µM]
48 | C=C(C)/C=C/c1c(O)cc2oc3cc(O)c(OC)c(/C=C/C(=C)C)c3c(=O)c2c1O | 53.3
49 | C=C(C)/C=C/c1c(O)c(CC=C(C)C)c2oc3c(O)cccc3c(=O)c2c1O | 137.2
50 | C=C(C)/C=C/c1c(OC)c(O)cc2oc3cc4c(c(O)c3c(=O)c12)CC(O)C(C)(C)O4 (centres undefined) | 102.5
51 | C=C(C)C1Cc2c(cc3oc4cc(O)c(OC)c(CC=C(C)C)c4c(=O)c3c2O)O1 (centres undefined) [MANGOSTENONE F] | 191.2
52 | C=C(C)/C=C/c1c(O)c(CC=C(C)C)c2oc3c(O)ccc(O)c3c(=O)c2c1O | 37.7
53 | C=C(C)/C=C/c1c(O)cc2oc3cc(O)c(O)c(/C=C/C(=C)C)c3c(=O)c2c1O | 17.5
54 | C=C(C)/C=C/c1c(O)cc2oc3cc(O)c(OC)c(CC(=O)C(=C)C)c3c(=O)c2c1O | 85.7
55 | CC(C)=CC/C(C)=C/Cc1c(O)cc2oc3c(O)ccc(O)c3c(=O)c2c1O | 35.3
56 | C=C(C)/C=C/c1c(OC)cc2oc3cc(O)c(OC)c(/C=C/C(=C)C)c3c(=O)c2c1O | 192

Target: T2, Alpha-glucosidase
Experiment: Inhibition of Saccharomyces cerevisiae alpha-glucosidase assessed as release of p-nitrophenol using pNPG as substrate preincubated for 15 mins followed by substrate addition and measured after 15 mins by plate reader analysis
Type: protein assay

Row | SMILES | IC50 [µg/mL]
57 | COc1cc(O)c2c(=O)c3cc(O)ccc3oc2c1OC | 13.2 (≈ 45.8 µM)
58 | COc1ccc2oc3ccc(O)cc3c(=O)c2c1OC | 48.5 (≈ 178 µM)
59 | COc1ccc2oc3ccc(O)cc3c(=O)c2c1 | 77.3 (≈ 319 µM)
60 | COc1c(O)cc2oc3ccc(O)c(OC)c3c(=O)c2c1O | 63.4 (≈ 208 µM)
61 | O=c1c2cc(O)ccc2oc2cccc(O)c12 | 35.8 (≈ 157 µM)
62 | COc1ccc(O)c2c(=O)c3cc(O)ccc3oc12 | 27.6 (≈ 107 µM)
63 | COc1c(O)cc2oc3ccc(O)cc3c(=O)c2c1O | 7.6 (≈ 27.7 µM)
64 | COc1cc(OC)c2c(=O)c3c(O)c(OC)ccc3oc2c1O | 59 (≈ 185 µM)
65 | COc1c(O)cc(O)c2c(=O)c3cc(O)ccc3oc12 | 12.8 (≈ 46.7 µM)

Target: T2, Alpha-glucosidase
Experiment: Inhibition of Saccharomyces cerevisiae alpha-glucosidase assessed as release of p-nitrophenol using pNPG as substrate preincubated for 15 mins followed by substrate addition and measured after 30 mins by spectrophotometric analysis
Type: protein assay

Row | SMILES | IC50 [µM]
66 | COC(=O)c1cc(O)cc2oc3cc(C)cc(O)c3c(=O)c12 | 2980
67 | COC(=O)c1c(O)ccc2oc3cc(C(=O)O)cc(O)c3c(=O)c12 | 260

Target: T1, Alpha glucosidase
Experiment: Inhibition of alpha-glucosidase (unknown origin) at 100 uM
Type: protein assay

Row | SMILES | inhibition [%]
68 | COc1cc(OC/C=C(\C)C/C=C(\C)C/C=C(\C)C/C=C(\C)C/C=C(\C)C/C=C(\C)C/C=C(\C)C/C=C(\C)CC=C(C)C)c2c(=O)c3c(O)ccc(OC)c3oc2c1 | 34.5
69 | COc1cc(OC/C=C(\C)C/C=C(\C)CC=C(C)C)c2c(=O)c3c(O)ccc(OC)c3oc2c1 | 66.2
70 | COc1cc(OC/C=C(\C)CC=C(C)C)c2c(=O)c3c(O)ccc(OC)c3oc2c1 | 30.9
71 | CC(C)=CCOc1cc(O)c2c(=O)c3ccccc3oc2c1 | 31
72 | CC(C)=CC/C(C)=C/COc1cc(O)c2c(=O)c3ccccc3oc2c1 | 43.1
73 | COc1cc(OCC=C(C)C)c2c(=O)c3c(O)ccc(OC)c3oc2c1 | 42.1

Target: not listed separately
Experiment: Inhibition of rice alpha-glucosidase using p-nitrophenyl-alpha-D-glucopyranoside as substrate preincubated for 15 mins followed by substrate addition and measured after 90 mins by spectroscopic analysis

Row | SMILES | IC50 [µg/mL]
74 | O=c1c2cc(O[C@H]3O[C@@H](O)[C@H](O)[C@@H](O)[C@@H]3O)c(O)cc2oc2cc(O)c([C@H]3O[C@@H](CO)[C@H](O)[C@@H](O)[C@@H]3O)cc12 | 158 (≈ 285 µM)
